From US20180339066A1, “Methods and Compositions for Enhancing Transduction Efficiency of Retroviral Vectors” (The Scripps Research Institute, priority 2013, published 2018)

What was measured:
[1] = system: human cord blood CD34+ cells; assay: HIV-1 based lentiviral vector transduction of cord blood CD34+ cells, GFP by flow cytometry; type: cell-based; conditions: for transduction efficiency: added with vector or delayed by 2 or 6 hours
[2] = system: stimulated cord blood CD34+ cells; assay: Quantification of HIV-1 reverse transcription products by qPCR; conditions: MOI=25, 20 μg/ml rapamycin
Experimental: Quantification of HIV-1 reverse transcription products. Stimulated cord blood CD34^+ cells (2-3E5) were transduced with an MOI of 25 in the presence of 20 μg/ml rapamycin or DMSO, and harvested at 6, 12, or 24 hours after the start of transduction by freezing cell pellets at −80° C. Total DNA was extracted using the QiaAmp DNA mini kit, and treated with Dpnl for 2-4 hours to eliminate plasmid DNA. Quantitative PCR was carried out on the Roche LightCycler 480 using previously published primer and probe sequences (Prasad et al., HIV Protocols: Second Edition 485, 2009).

[3] = system: primitive HSCs (serial repopulating cells); assay: Serial NSG mouse transplantation of transduced cord blood CD34+ cells; type: in vivo, human
Experimental: (§1) Colony forming assay, NSG mouse reconstitution, and serial transplantation. For colony forming assays, transduced cord blood CD34^+ HSPCs were counted and 100 cells were seeded in 1.5 ml methocult4434 (StemCell Technologies) in 30 mm dishes in triplicate. Total BFU-E, CFU-GM, CFU-M, and CFU-GEMM colonies, as well as GFP+ colonies, were counted 16-18 days after plating using a fluorescent microscope. […] Mice were bled every 4 weeks starting from 8 weeks post injection, and sacrificed at 19 weeks to assess engraftment and GFP expression in the bone marrow, spleen, and thymus by flow cytometry. For serial transplantation, primary recipients were sacrificed at 12 weeks post injection, and bone marrow cells from both femurs of one mouse were injected into two irradiated secondary recipients, which were again sacrificed at 12 weeks post injection for flow cytometric analysis of bone marrow and spleen. NSG mice were maintained at the Scripps Research Institute Molecular and Experimental Medicine animal facility.
To stringently establish transduced cells as primitive HSCs, we carried out serial NSG mouse transplantation with cord blood CD34^+ cells transduced with or without rapamycin. […] Bone marrow cells of secondary recipients were again analyzed 12 weeks post injection.

[4] = system: cord blood CD34+ cells; assay: Colony forming assay and parallel liquid culture of transduced cord blood CD34+ cells; type: cell-based, human; conditions: stimulated cord blood CD34+ cells, MOI=25
Experimental: as §1
To determine whether primitive HSCs in the heterogeneous CD34^+ population are transduced in the presence of rapamycin, we tested the ability of transduced cord blood CD34^+ cells to engraft irradiated NSG mice. A fraction of transduced cells was assessed in parallel liquid culture and colony forming assays. […]

[5] = system: human cord blood CD34+ cells; assay: Integrase-defective lentiviral vector (IDLV) transduction of cord blood CD34+ cells; conditions: MOI=50, two days after transduction
Experimental: Human cord blood CD34^+ cells were stimulated for 24 h and transduced with IDLVs, MOI=50, with or without 10 ng/μl rapamycin. GFP expression was assayed by flow cytometry every three days from 2-14 days post transduction. Data represent mean and standard deviation of independent transductions of two separate donors.
Cord blood CD34^+ cells were transduced with IDLVs in the absence or presence of rapamycin, and GFP expression was followed from 2-14 days post transduction.

[6] = system: NSG-repopulating cells; assay: NSG mouse reconstitution with transduced cord blood CD34+ cells (long-term engraftment); type: in vivo, human
Experimental: as §1
To determine whether primitive HSCs in the heterogeneous CD34^+ population are transduced in the presence of rapamycin, we tested the ability of transduced cord blood CD34^+ cells to engraft irradiated NSG mice. A fraction of transduced cells was assessed in parallel liquid culture and colony forming assays. […] Mice were sacrificed 19 weeks after injection to assess long-term engraftment. […] This four-fold transduction enhancement in NSG-repopulating cells was more pronounced than in parallel liquid culture or CFU assay (FIG. 2C), indicating preferential transduction of primitive HSCs in the presence of rapamycin.

[7] = system: p21 mRNA; assay: p21 mRNA quantification by RT-PCR; conditions: cord blood CD34+ cells, 20 μg/ml rapamycin, 6 hours
[8] = NSG mice, 19 weeks after injection

## Cn1cnc(N)c2ncnc1-2 [3-methyadenine, 3-methyladenine]
[1]; autophagosome formation inhibited during transduction
  GFP expression: decreased

## CCC(=O)N1CCN(c2ccc(-n3c(=O)ccc4cnc5ccc(-c6cnc7ccccc7c6)cc5c43)cc2C(F)(F)F)CC1 [Torin 1]
[1]; 5 μM
  in vitro transduction efficiency relative to DMSO control: enhanced
  transduction enhancement compared with rapamycin: comparable

## CO/C1=C\C(C)=C\[C@@H](C)[C@@H](O)[C@@H](C)C/C(C)=C/C=C/[C@H](OC)[C@@H]([C@@H](C)[C@@H](O)[C@H](C)[C@@]2(O)C[C@@H](O)[C@H](C)[C@@H](C(C)C)O2)OC1=O [bafilomycin Al]
[1]
  transduction efficiency: decreased

## CCN(CC)CCCC(C)Nc1ccnc2cc(Cl)ccc12 (stereo not shown) [chloroquine]
[1]
  transduction efficiency: decreased

## CO[C@H]1C[C@@H]2CC[C@@H](C)[C@@](O)(O2)C(=O)C(=O)N2CCCC[C@H]2C(=O)O[C@H]([C@H](C)C[C@@H]2CC[C@@H](O)[C@H](OC)C2)CC(=O)[C@H](C)/C=C(\C)[C@@H](O)[C@@H](OC)C(=O)[C@H](C)C[C@H](C)/C=C/C=C/C=C/1C [rapamycin]
[2]
  increase in per cell amount of 2-LTR circles: 2-to-3 fold
  increase in per cell amount of viral full-length DNA: 2-to-3 fold
[1]; pre-stimulated cord blood CD34+ cells, rapamycin present during transduction, 11-14 days in culture, control 40%
  GFP positivity (percentage of GFP-expressing cells): 80%
[3]; human hematopoietic stem cells
  gene marking frequency relative to other known methods of treatment: 4-5 fold
[3]; secondary mouse recipients
  EGFP-marked human cell populations in secondary recipients: > 90%
[4]
  efficiency or proportion of colony formation: did not significantly affect
[5]
  increase in percentage of GFP expressing cells: 17%
[6]; 20 μg/ml rapamycin during transduction, 19 weeks, control 20%
  GFP positivity in human CD45+ cells in mouse bone marrow: 80%
[6]; [8]
  long-term engraftment ability of CD34+ cells: did not impair
  reconstitution levels in bone marrow vs control: not statistically different
[7]
  up-regulation in p21 mRNA: 3-5 fold
